Columns and labels:
Assay in all cases: normalised response (% of control), CellTiter-Glo; higher = more viable cells (100 = DMSO, 0 = benzethonium chloride kill control)
Conditions in all cases: incubation time: 72 h
BT-474 = tested on: BT-474
Procedure, shortened: (§1)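 CellTox Green fluorescence (485/520 nm) and, after 10 min at room temperature, CellTiter-Glo luminescence were read from breast cancer cell lines incubated 72 h in 384-well plates. Cells were seeded as 20 µl suspension onto compound at 5 concentrations in 10-fold steps over a 10,000-fold range chosen per compound. Each plate was normalised to 0.1 % DMSO (100) and a positive kill control (0). Values are normalised signals, one per concentration.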

BT-549 = tested on: BT-549
Procedure, shortened: as §1

CAL-120 = tested on: CAL-120
Procedure, shortened: as §1

CAL-148 = tested on: CAL-148
Procedure, shortened: as §1

CAL-51 = tested on: CAL-51
Procedure, shortened: as §1

CAL-85-1 = tested on: CAL-85-1
Procedure, shortened: as §1

DU-4475 = tested on: DU-4475
Procedure, shortened: as §1

HCC1143 = tested on: HCC1143
Procedure, shortened: as §1

HCC1599 = tested on: HCC1599
Procedure, shortened: as §1

HCC1937 = tested on: HCC1937
Procedure, shortened: as §1

HDQ-P1 = tested on: HDQ-P1
Procedure, shortened: as §1

Hs578T = tested on: Hs578T
Procedure, shortened: as §1

MCF-10A = tested on: MCF-10A
Procedure, shortened: as §1

MDA-MB-231 = tested on: MDA-MB-231
Procedure, shortened: as §1

MDA-MB-436 = tested on: MDA-MB-436
Procedure, shortened: as §1

MDA-MB-453 = tested on: MDA-MB-453
Procedure, shortened: as §1

MDA-MB-468 = tested on: MDA-MB-468
Procedure, shortened: as §1

MFM-223 = tested on: MFM-223
Procedure, shortened: as §1

SK-BR-3 = tested on: SK-BR-3
Procedure, shortened: as §1

| SMILES | normalised response (BT-474) [%] | normalised response (BT-549) [%] | normalised response (CAL-120) [%] | normalised response (CAL-148) [%] | normalised response (CAL-51) [%] | normalised response (CAL-85-1) [%] | normalised response (DU-4475) [%] | normalised response (HCC1143) [%] | normalised response (HCC1599) [%] | normalised response (HCC1937) [%] | normalised response (HDQ-P1) [%] | normalised response (Hs578T) [%] | normalised response (MCF-10A) [%] | normalised response (MDA-MB-231) [%] | normalised response (MDA-MB-436) [%] | normalised response (MDA-MB-453) [%] | normalised response (MDA-MB-468) [%] | normalised response (MFM-223) [%] | normalised response (SK-BR-3) [%] |
| --- | --- | --- | --- | --- | --- | --- | --- | --- | --- | --- | --- | --- | --- | --- | --- | --- | --- | --- | --- |
| C=C(c1ccc(C(=O)O)cc1)c1cc2c(cc1C)C(C)(C)CCC2(C)C [Bexarotene] (10 nM) | 99.8 | 97.1 | 101 | 106 | 137 | 107 | 101 | 101 | 96.3 | 94.6 | 106 | 97 | 99.4 | 100 | 100 | 101 | 104 | 107 | 98.8 |
| Cn1c(CCCC(=O)O)nc2cc(N(CCCl)CCCl)ccc21 [Bendamustine] (10 nM) | 111 | 99.3 | 107 | 110 | 100 | 102 | 111 | 107 | 106 | 102 | 101 | 103 | 110 | 103 | 104 | 107 | 106 | 106 | 110 |
| Cc1ccc(C(=O)N(CCCN)[C@@H](c2oc3cc(Cl)ccc3c(=O)c2Cc2ccccc2)C(C)C)cc1 (0.01 nM) | 95.3 | 104 | 96.6 | 91.8 | 81.7 | 93.8 | 96.6 | 102 | 112 | 102 | 103 | 97.8 | 97.8 | 99 | 97.3 | 101 | 93 | 92.1 | 93.1 |
| CC(=O)Nc1ccc(C(=O)Nc2ccccc2N)cc1 [Tacedinaline] (1 nM) | 105 | 96.2 | 97.9 | 95.3 | 124 | 95.8 | 97.6 | 99.5 | 109 | 92.7 | 98.9 | 96 | 93.5 | 97.6 | 101 | 103 | 98.3 | 101 | 97.1 |
| C[C@]12CC[C@@H]3c4ccc(O)cc4C[C@@H](CCCCCCCCC[S+]([O-])CCCC(F)(F)C(F)(F)F)[C@H]3[C@@H]1CC[C@@H]2O (some centres undefined) [Fulvestrant] (0.1 nM) | 101 | 109 | 95.7 | 102 | 123 | 101 | 102 | 95.3 | 93.4 | 105 | 101 | 112 | 107 | 100 | 105 | 112 | 101 | 107 | 108 |
| C[C@@H](Oc1cc(-c2cnn(C3CCNCC3)c2)cnc1N)c1c(Cl)ccc(F)c1Cl [Crizotinib] (0.1 nM) | 101 | 104 | 102 | 102 | 82.4 | 92.6 | 106 | 99.3 | 82 | 100 | 96.7 | 96.2 | 95.6 | 102 | 96.7 | 111 | 91.7 | 103 | 81.6 |
| CCCCCCCCCCCCCCCCCCOP(=O)([O-])OC1CC[N+](C)(C)CC1 [Perifosine] (2.5 nM) | 104 | 99.5 | 102 | 95.9 | 81 | 101 | 94.7 | 102 | 61.5 | 101 | 108 | 98.9 | 98.4 | 100 | 95.2 | 101 | 97.4 | 92.8 | 92.8 |
| CS(=O)(=O)c1ccc(C2=C(c3ccccc3)C(=O)OC2)cc1 [Rofecoxib] (1 nM) | 103 | 106 | 98.6 | 108 | 69.4 | 98.4 | 106 | 110 | 99.1 | 107 | 101 | 104 | 114 | 104 | 103 | 98.5 | 108 | 111 | 112 |
| N[C@@H](CSC(c1ccccc1)(c1ccccc1)c1ccccc1)C(=O)O [S-trityl-L-cysteine] (40 nM) | 96.7 | 99.2 | 102 | 97.5 | 131 | 104 | 101 | 92.7 | 109 | 93.8 | 119 | 94.3 | 105 | 90.4 | 103 | 95 | 98.5 | 107 | 97.5 |
| CC1(C)NC(=O)N(c2ccc([N+](=O)[O-])c(C(F)(F)F)c2)C1=O [Nilutamide] (10 nM) | 105 | 105 | 97.9 | 112 | 127 | 96 | 109 | 101 | 113 | 101 | 95.6 | 99.1 | 110 | 102 | 110 | 103 | 93.3 | 112 | 117 |
| CCCCCCCCCCCCCCCCCCOP(=O)([O-])OC1CC[N+](C)(C)CC1 [Perifosine] (0.25 nM) | 99.4 | 107 | 108 | 99.2 | 102 | 96.5 | 92.7 | 103 | 113 | 98.8 | 106 | 108 | 101 | 99.6 | 116 | 105 | 99 | 92.3 | 92.3 |
